This is an account of results in patent publication US20170121315A1, “HETEROBICYCLICALLY SUBSTITUTED 4-OXOBUTANE ACID DERIVATIVES AND USE THEREOF” (priority 2014, published 2017).

The target of the experiment is T1, human macrophage elastase (HME/hMMP-12) (Homo sapiens, UniProt P39900).
T1 construct: purchased R&D Systems 917-MP
T1 sequence (P39900 106-470): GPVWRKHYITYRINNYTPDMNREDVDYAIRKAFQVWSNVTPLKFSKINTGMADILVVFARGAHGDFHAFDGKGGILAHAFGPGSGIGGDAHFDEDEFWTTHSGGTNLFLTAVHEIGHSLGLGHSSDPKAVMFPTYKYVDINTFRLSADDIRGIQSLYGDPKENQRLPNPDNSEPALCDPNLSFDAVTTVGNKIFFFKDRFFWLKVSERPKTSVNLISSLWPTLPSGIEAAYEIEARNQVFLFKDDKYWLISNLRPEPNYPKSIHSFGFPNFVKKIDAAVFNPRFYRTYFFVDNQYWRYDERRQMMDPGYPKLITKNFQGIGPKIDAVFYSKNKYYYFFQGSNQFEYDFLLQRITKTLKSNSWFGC
In words: In vitro HME inhibition test (standard or high-sensitivity). It is filed as biochemical. The following applies: in some cases mean values, rounded to two significant figures. The procedure, abridged:
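Autoactivated HME (0.5 nM; high-sensitivity format 0.05 nM, ~16 h) with 5 μM quenched Mca-PLGLEEA-Dap(Dnp)-NH2 substrate in HEPES pH 7.4, NaCl, CaCl2, ZnCl2, EDTA, Brij buffer, 2 h at 37° C. Fluorescence at ex 323/em 393 nm; IC50 from signal versus concentration.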
A word on the IC50: it is the midpoint of a concentration-inhibition curve. Read a high IC50 as weaker potency in that assay. As for `CCCOc1ccc2c(C(=O)CC(CCn3nnc4ccccc4c3=O)C(=O)O)coc2c1` (racemic) [Example 86, (+/−)-4-Oxo-2-[2-(4-oxo-1,2,3-benzotriazin-3(4H)-yl)ethyl]-4-(6-propoxy-1-benzofur-3-yl)butanoic acid], half-maximal inhibition (IC50) was put at 1.4 nM.

`CCCCCCOc1ccc2c(C(=O)CC(CCn3nnc4ccccc4c3=O)C(=O)O)coc2c1` (single isomer, unassigned; (-)) [Example 99, (−)-4-[6-(Hexyloxy)-1-benzofur-3-yl]-4-oxo-2-[2-(4-oxo-1,2,3-benzotriazin-3(4H)-yl)ethyl]butanoic acid] had an IC50 of 100 nM.

In turn, `O=C(CC(CCn1nnc2ccccc2c1=O)C(=O)O)c1noc2cc(OCCC3CCCCC3)ccc12` (single isomer, unassigned; enantiomer 1) [Example 142, (−)-4-[6-(2-Cyclohexylethoxy)-1,2-benzoxazol-3-yl]-4-oxo-2-[2-(4-oxo-1,2,3-benzotriazin-3(4H)-yl)ethyl]butanoic acid (enantiomer 1)] showed an IC50 of 15 nM.

`CCCCOc1ccc2c(C(=O)CC(CCn3nnc4ccccc4c3=O)C(=O)O)coc2c1` (racemic) [Example 107, (+/−)-4-(6-Butoxy-1-benzofur-3-yl)-4-oxo-2-[2-(4-oxo-1,2,3-benzotriazin-3(4H)-yl)ethyl]butanoic acid]: the IC50 came out at 0.61 nM.

Compound `CCCOc1ccc2c(C(=O)CC(CCn3nnc4ccccc4c3=O)C(=O)O)coc2c1` (single isomer, unassigned; (-)) [Example 87, (−)-4-Oxo-2-[2-(4-oxo-1,2,3-benzotriazin-3(4H)-yl)ethyl]-4-(6-propoxy-1-benzofur-3-yl)butanoic acid] showed an IC50 of 470 nM.

`O=C(CC(CCn1nnc2ccccc2c1=O)C(=O)O)c1coc2cc(OCc3ccc(Cl)c(Cl)c3)ccc12` (racemic) [Example 92, (+/−)-4-{6-[(3,4-Dichlorobenzyl)oxy]-1-benzofur-3-yl}-4-oxo-2-[2-(4-oxo-1,2,3-benzotriazin-3(4H)-yl)ethyl]butanoic acid]: the IC50 was 1.3 nM.

Consider `Cc1c(COc2ccc3oc(C(=O)CC(CCn4nnc5ccccc5c4=O)C(=O)O)cc3c2)cccc1C(F)(F)F` (racemic) [Example 48, (+/−)-4-(5-{[2-Methyl-3-(trifluoromethyl)benzyl]oxy}-1-benzofur-2-yl)-4-oxo-2-[2-(4-oxo-1,2,3-benzotriazin-3(4H)-yl)ethyl]butanoic acid], for which the IC50 came to 4 nM.

In the case of `O=C(CC(CCn1nnc2ccccc2c1=O)C(=O)O)c1cc2ccc(OCCCC(F)(F)F)cc2s1` (racemic) [Example 120, (+/−)-4-Oxo-2-[2-(4-oxo-1,2,3-benzotriazin-3(4H)-yl)ethyl]-4-[6-(4,4,4-trifluorobutoxy)-1-benzothiophen-2-yl]butanoic acid], the IC50 worked out at 3.6 nM.

Regarding `O=C(CC(CCn1nnc2ccccc2c1=O)C(=O)O)c1cc2ccc(OCC(=O)C3CC3)cc2s1` (racemic) [Example 115, (+/−)-4-[6-(2-Cyclopropyl-2-oxoethoxy)-1-benzothiophen-2-yl]-4-oxo-2-[2-(4-oxo-1,2,3-benzotriazin-3(4H)-yl)ethyl]butanoic acid], 3.1 nM corresponded to half-maximal inhibition (IC50).

`O=C(CC(CCn1nnc2ccccc2c1=O)C(=O)O)c1cc2ccc(OCc3ccncc3)cc2s1` (racemic) [Example 123, (+/−)-4-Oxo-2-[2-(4-oxo-1,2,3-benzotriazin-3(4H)-yl)ethyl]-4-[6-(pyridin-4-ylmethoxy)-1-benzothiophen-2-yl]butanoic acid]: the IC50 was found to be 2.7 nM.

The compound `O=C(CC(CCn1nnc2ccccc2c1=O)C(=O)O)c1cc2cc(OCCCC(F)(F)F)ccc2o1` (single isomer, unassigned; enantiomer 1) [Example 12, (−)-4-Oxo-2-[2-(4-oxo-1,2,3-benzotriazin-3(4H)-yl)ethyl]-4-[5-(4,4,4-trifluorobutoxy)-1-benzofur-2-yl]butanoic acid (enantiomer 1)] showed an IC50 of 900 nM.
